Test results from patent US10344019B2 (priority 2010, dated 2019).
Where two headings read alike, the source gives them in different places.

Experiments:
Format in all cases: cell-based
[1] = system: Q30R in genotype 1a NS5A, 1a Rluc replicon transfected into Huh-7 cured-51 cells; test: HCV replicon assay, resistance mutant 1a Q30R
Protocol: Evaluation of cell-based anti-HCV activity: Antiviral potency (EC50) was determined using a Renilla luciferase (RLuc)-based HCV replicon reporter assay. To perform the assay for genotype 1 and 2a JFH-1, HCV 1b RLuc cells (harboring a dicistronic genotype 1b Con1 replicon that encodes a RLuc reporter), or HCV 1a RLuc cells (harboring a dicistronic genotype 1a H77 replicon that encodes a RLuc reporter), or HCV 2a JFH-1 Rluc cells (harboring a dicistronic genotype 2a JFH-1 replicon that encodes a RLuc reporter) were dispensed into 384-well plates. To perform the assay for genotype 2a (with M31 present) or 2b, HCV 2a Rluc or 2b Rluc cells (both with M31 present) harboring a dicistronic NS5A chimeric genotype 2a JFH-1 replicon that encodes a RLuc reporter and either genotype 2a J6 strain NS5A gene or genotype 2b MD2b-1 NS5A gene (based on Los Alamos HCV database isolates, both with M31 present) respectively, were dispensed into 384-well plates. To perform the assay for genotype 3 and 4, HCV 3a RLuc or 4a Rluc cells harboring a dicistronic NS5A chimeric genotype 1b Con1 replicon that encodes a RLuc reporter and either a consensus genotype 3a NS5A gene or genotype 4a NS5A gene (based on Los Alamos HCV database isolates) respectively, were dispensed into 384-well plates. Compounds were re-suspended in DMSO at a concentration of 10 mM and serially diluted in DMSO either manually or using an automated pipeting instrument. Serially diluted compounds were mixed with cell culture media and added to the seeded cells. […] 72 hours later, cells were lysed and Renilla luciferase activity quantified as recommended by the manufacturer (Promega-Madison, Wis.). Non-linear regression was performed to calculate EC50 values.
To determine the antiviral potency (EC50) against resistance mutants, resistance mutations, including M28T, Q30R, Q30H, L31M, and Y93C in genotype 1a NS5A and Y93H in genotype 1b NS5A, were introduced individually into either 1a Rluc or 1b Rluc replicons described above by site directed mutagenesis. Replicon RNA of each resistant mutant was transfected into Huh-7 cured-51 cells and antiviral potency was determined on these transfected cells as described above.

[2] = system: HCV 2a JFH-1 Rluc cells (dicistronic genotype 2a JFH-1 replicon, RLuc reporter); test: microbe, parasite or virus in culture; settings: Hepatitis C virus, read-out: 2a JFH
Summary of the method: (§1)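 Replicon cells stably carrying the listed RLuc-encoding dicistronic replicons were seeded and treated with DMSO serial dilutions of compound (10 mM stocks) diluted into culture medium. After 72 h, cells were lysed and Renilla luciferase activity measured. EC50 was derived by non-linear regression.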

[3] = system: HCV 2b Rluc cells (NS5A chimeric genotype 2a JFH-1 replicon with genotype 2b MD2b-1 NS5A gene, M31 present); test: microbe, parasite or virus in culture; settings: read-out: 2b
Summary of the method: as §1

[4] = system: HCV 3a RLuc cells (NS5A chimeric genotype 1b Con1 replicon with consensus genotype 3a NS5A gene); test: microbe, parasite or virus in culture; settings: Hepatitis C virus
Summary of the method: as §1

[5] = system: HCV 1a RLuc cells (dicistronic genotype 1a H77 replicon, RLuc reporter); test: microbe, parasite or virus in culture; settings: Hepatitis C virus, read-out: 1a
Summary of the method: as §1

[6] = system: HCV 4a Rluc cells (NS5A chimeric genotype 1b Con1 replicon with genotype 4a NS5A gene); test: microbe, parasite or virus in culture; settings: read-out: 4a
Summary of the method: as §1

[7] = system: HCV 2a Rluc cells (NS5A chimeric genotype 2a JFH-1 replicon with genotype 2a J6 strain NS5A gene, M31 present); test: HCV replicon reporter assay, genotype 2a J6 (M31 present); settings: read-out: 2a J6
Summary of the method: as §1

[8] = system: HCV 1b RLuc cells (dicistronic genotype 1b Con1 replicon, RLuc reporter); test: microbe, parasite or virus in culture; settings: Hepatitis C virus, read-out: 1b (nM)
Summary of the method: as §1

[9] = Hepatitis C virus, Huh-7, read-out: 1a Q30R
[10] = read-out: 3a, genotype 3a replicon
[11] = genotype 2a JFH-1 RLuc replicon
[12] = read-out: 3a, genotype 3a NS5A chimeric replicon

| SMILES | EC50 [1, 9] | EC50 ([2]; genotype 2a JFH-1 replicon) | EC50 ([3]; Hepatitis C virus) | EC50 [4, 10] | EC50 ([5]; genotype 1a replicon) | EC50 ([6]; Hepatitis C virus) | EC50 ([7]; Hepatitis C virus) | EC50 [2, 11] | EC50 [4, 12] | EC50 ([5]; genotype 1a H77 RLuc replicon) | EC50 ([1]; read-out: 1a Q30R, genotype 1a NS5A Q30R resistance mutant) | EC50 ([3]; genotype 2b NS5A chimeric replicon, M31 present) | EC50 ([6]; genotype 4a NS5A chimeric replicon) | EC50 ([7]; genotype 2a J6 NS5A chimeric replicon, M31 present) | EC50 [8] |
| --- | --- | --- | --- | --- | --- | --- | --- | --- | --- | --- | --- | --- | --- | --- | --- |
| COC(=O)N[C@H](C(=O)N1CCC[C@H]1c1ncc(-c2ccc3c(c2)COc2cc4c(cc2-3)CCc2nc([C@@H]3CCCN3C(=O)[C@H](NC(=O)OC)c3ccccc3)[nH]c2-4)[nH]1)C(C)C [Example 434] | 1 to 999 pM | 1 to 999 pM | 1 to 999 pM | 1 to 990 pM | 1 to 999 pM | 1 to 990 pM | 1 to 999 pM | – | – | – | – | – | – | – | – |
| COC(=O)N[C@H](C(=O)N1CCC[C@H]1c1nc2c([nH]1)-c1cc3c(cc1CC2)-c1ccc(-c2cnc([C@@H]4CCCN4C(=O)[C@H](NC(=O)OC)c4ccccc4)[nH]2)cc1CO3)C(C)C [Example 435] | 1 to 999 pM | 1 to 999 pM | 1 to 999 pM | 1 to 990 pM | 1 to 999 pM | 1 to 990 pM | 1 to 999 pM | – | – | – | – | – | – | – | – |
| COC(=O)N[C@H](C(=O)N1CCC[C@H]1c1ncc(-c2ccc3c(c2)COc2cc4c(ccc5nc([C@@H]6C[C@H](C)CN6C(=O)[C@@H](NC(=O)OC)C(C)C)[nH]c54)cc2-3)[nH]1)C(C)C [Example 526] | 1 to 999 pM | – | 1 to 999 pM | – | – | 1 to 990 pM | 1 to 999 pM | 1 to 999 pM | 1 to 990 pM | 1 to 999 pM | – | – | – | – | – |
| COC[C@H]1C[C@@H](c2nc3ccc4cc5c(cc4c3[nH]2)OCc2cc(-c3cnc([C@@H]4CCCN4C(=O)[C@@H](NC(=O)OC)C(C)C)[nH]3)ccc2-5)N(C(=O)[C@H](NC(=O)OC)c2ccccc2)C1 [Example 538] | 1 to 999 pM | – | 1 to 999 pM | – | – | 1 to 990 pM | 1 to 999 pM | 1 to 999 pM | 1 to 990 pM | 1 to 999 pM | – | – | – | – | – |
| COC[C@H]1C[C@@H](c2nc3ccc4cc(-c5ccc6c(ccc7nc([C@@H]8CCCN8C(=O)[C@@H](NC(=O)OC)C(C)C)[nH]c76)c5)ccc4c3[nH]2)N(C(=O)[C@H](NC(=O)OC)c2ccccc2)C1 [Example 540] | – | – | – | – | – | – | – | 1 to 999 pM | 1 to 990 pM | 1 to 999 pM | 1 to 999 pM | 1 to 999 pM | 1 to 990 pM | 1 to 999 pM | – |
| COC(=O)N[C@H](C(=O)N1C[C@@H](COC(F)F)C[C@H]1c1nc2ccc3cc4c(cc3c2[nH]1)OCc1cc(-c2cnc([C@@H]3CCCN3C(=O)[C@H](NC(=O)OC)c3ccccc3)[nH]2)ccc1-4)C(C)C [Example 558] | 1 to 999 pM | – | 1 to 999 pM | – | – | 1 to 990 pM | 1 to 999 pM | 1 to 999 pM | – | 1 to 999 pM | – | – | – | – | 0.014 nM |
| COC[C@H]1C[C@@H](c2nc3ccc4cc5c(cc4c3[nH]2)OCc2cc(-c3cnc([C@@H]4CCCN4C(O)[C@@H](NC(=O)OC)[C@@H](C)OC)[nH]3)ccc2-5)N(C(=O)[C@H](NC(=O)OC)c2ccccc2)C1 (stereo partly shown) [Example 618] | 1 to 999 pM | – | 1 to 999 pM | – | – | – | 1 to 999 pM | 1 to 999 pM | 1 to 990 pM | 1 to 999 pM | – | – | – | – | 0.02 nM |
| COC[C@H]1C[C@@H](c2ncc(-c3ccc4c(c3)COc3cc5c(ccc6nc([C@@H]7C[C@H](C)CN7C(=O)[C@@H](NC(=O)OC)C(C)C)[nH]c65)cc3-4)[nH]2)N(C(=O)[C@H](NC(=O)OC)c2ccccc2)C1 [Example 622] | 1 to 999 pM | – | 1 to 999 pM | – | – | – | 1 to 999 pM | 1 to 999 pM | 1 to 990 pM | 1 to 999 pM | – | – | – | – | 0.016 nM |
| COC[C@H]1C[C@@H](c2ncc(-c3ccc4c(c3)COc3cc5c(ccc6nc([C@@H]7CCCN7C(=O)[C@H](NC(=O)OC)c7ccccc7)[nH]c65)cc3-4)[nH]2)N(C(=O)[C@@H](NC(=O)OC)C(C)C)C1 [Example 625] | 1 to 999 pM | – | 1 to 999 pM | – | – | – | 1 to 999 pM | 1 to 999 pM | 1 to 990 pM | 1 to 999 pM | – | – | – | – | 0.031 nM |
| COC[C@H]1C[C@@H](c2ncc(-c3ccc4c(c3)COc3cc5c(ccc6nc([C@@H]7CCCN7C(=O)[C@H](NC(=O)OC)c7ccccc7)[nH]c65)cc3-4)[nH]2)N(C(=O)[C@@H](NC(=O)OC)[C@@H](C)OC)C1 [Example 626] | 1 to 999 pM | – | 1 to 999 pM | – | – | – | 1 to 999 pM | 1 to 999 pM | 1 to 990 pM | 1 to 999 pM | – | – | – | – | 0.03 nM |
| COC[C@H]1C[C@@H](c2ncc(-c3ccc4c(c3)COc3cc5c(ccc6nc([C@@H]7C[C@H]8C[C@H]8N7C(=O)[C@@H](NC(=O)OC)C(C)C)[nH]c65)cc3-4)[nH]2)N(C(=O)[C@H](NC(=O)OC)c2ccccc2)C1 [Example 633] | 1 to 999 pM | – | 1 to 999 pM | – | – | – | 1 to 999 pM | 1 to 999 pM | 1 to 990 pM | 1 to 999 pM | – | – | – | – | 0.02 nM |
| COC[C@H]1C[C@@H](c2ncc(-c3ccc4c(c3)COc3cc5c(ccc6nc([C@@H]7C[C@@H]8C[C@@H]8N7C(=O)[C@@H](NC(=O)OC)C(C)C)[nH]c65)cc3-4)[nH]2)N(C(=O)[C@H](NC(=O)OC)c2ccccc2)C1 [Example 636] | 1 to 999 pM | – | 1 to 999 pM | – | – | – | 1 to 999 pM | 1 to 999 pM | 1 to 990 pM | 1 to 999 pM | – | – | – | – | 0.011 nM |
| CC[C@H](C)[C@H](NC(=O)OC)C(=O)N1C[C@@H](C)C[C@H]1c1ncc(-c2ccc3c(c2)COc2cc4c(ccc5nc([C@@H]6C[C@H](COC)CN6C(=O)[C@H](NC(=O)OC)c6ccccc6)[nH]c54)cc2-3)[nH]1 [Example 639] | 1 to 999 pM | – | 1 to 999 pM | – | – | – | 1 to 999 pM | 1 to 999 pM | 1 to 990 pM | 1 to 999 pM | – | – | – | – | 0.011 nM |
